Test results from patent publication US20140256754A1, “QUINAZOLINES AS B-GLUCURONIDASE NOVEL INHIBITORS” (priority 2013, published 2014).
Like-named read-outs stand apart in the source and are kept apart here.

What was measured:
β-glucuronidase = target: T1, β-glucuronidase (UniProt A3KMY8); experiment: β-Glucuronidase inhibition, spectrophotometric p-nitrophenyl-β-D-glucuronide assay; format: biochemical; conditions: for % Inhibition: test concentration not given
T1 sequence (A3KMY8 1-652): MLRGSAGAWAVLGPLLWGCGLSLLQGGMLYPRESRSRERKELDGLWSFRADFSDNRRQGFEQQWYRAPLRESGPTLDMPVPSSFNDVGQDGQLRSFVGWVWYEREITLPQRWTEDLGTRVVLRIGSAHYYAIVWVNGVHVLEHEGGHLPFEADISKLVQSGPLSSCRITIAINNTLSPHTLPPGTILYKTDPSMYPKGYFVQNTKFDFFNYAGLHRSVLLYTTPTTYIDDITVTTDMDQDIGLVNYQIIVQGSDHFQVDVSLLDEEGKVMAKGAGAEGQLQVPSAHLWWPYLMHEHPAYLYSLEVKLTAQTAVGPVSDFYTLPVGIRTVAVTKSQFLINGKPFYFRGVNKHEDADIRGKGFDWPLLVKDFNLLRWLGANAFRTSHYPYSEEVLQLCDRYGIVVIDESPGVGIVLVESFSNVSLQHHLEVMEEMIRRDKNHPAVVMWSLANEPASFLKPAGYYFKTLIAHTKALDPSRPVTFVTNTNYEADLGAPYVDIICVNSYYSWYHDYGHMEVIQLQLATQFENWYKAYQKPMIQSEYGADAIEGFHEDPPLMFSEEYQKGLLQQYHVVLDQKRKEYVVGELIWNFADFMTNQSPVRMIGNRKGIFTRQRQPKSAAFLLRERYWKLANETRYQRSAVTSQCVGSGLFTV
Experimental: The total reaction volume was 250 μL. […] The reaction mixture contained 185 μL of 0.1 M acetate buffer, 5 μL of test compound solution, 10 μL of (1U) enzyme solution was incubated at 37° C. for 30 min. […] All assays were run in triplicate. IC50 Values were calculated by using EZ-Fit software (Perrella Scientific Inc., Amherst, Mass., USA). These values are the mean of three independent assays.

PC-3 cells = experiment: MTT cytotoxicity assay against PC-3 cells; conditions: read-out: IC50 (μM) ± SEM, 72 h
Experimental: For this purpose, PC-3 cells (Prostrate Cancer)/3T3(Mouse fibroblast) were cultured in Dulbecco's Modified Eagle's Medium, supplemented with 5% of foetal bovine serum (FBS), 100 IU/mL of penicillin and 100 μg/mL of streptomycin in 25 cm^3 flask and kept in 5% CO2 incubator at 37° C. Exponentially growing cells were harvested, counted with haemocytometer and diluted with a particular medium.
Subsequently, 100 μL of DMSO was added to each well. The extent of MTT reduction to formazan within cells was calculated by measuring the absorbance at 570 nm, using a microplate ELISA reader (Spectra Max plus, Molecular Devices, Calif., USA).

[1] = read-out: IC50 (μM) ± SEM, mean of three independent assays

Row | SMILES | IC50 (β-glucuronidase; [1]) | % Inhibition (β-glucuronidase) | IC50 (PC-3 cells) | IC50 (β-glucuronidase; unit inferred)
1 | O=c1[nH]c(-c2ccccc2O)nc2ccccc12 [Compound 2, 2-(2-Hydroxyphenyl)quinazolin-4(3H)-one] | 10 ± 0.54 µM | 99.1% | > 30 µM | 
2 | O=c1[nH]c(-c2ccc(O)cc2)nc2ccccc12 [Compound 3, 2-(4-Hydroxyphenyl)quinazolin-4(3H)-one] | 22.2 ± 0.31 µM | 99.6% | > 30 µM | 
3 | O=c1[nH]c(-c2cccc(O)c2)nc2ccccc12 [Compound 4, 2-(3-Hydroxyphenyl)quinazolin-4(3H )-one] |  | 78.5% | > 30 µM | 
4 | O=c1[nH]c(-c2ccc(O)c(O)c2)nc2ccccc12 [Compound 5, 2-(3,4-Dihydroxyphenyl)quinazolin-4(3H)-one] |  |  | > 30 µM | 
5 | O=c1[nH]c(-c2cc(O)ccc2O)nc2ccccc12 [Compound 6, 2-(2,5-Dihydroxyphenyl)quinazolin-4(3H)-one] |  |  | > 30 µM | 
6 | COc1ccc(O)c(-c2nc3ccccc3c(=O)[nH]2)c1 [Compound 7, 2-[2-Hydroxy-5-(methyloxy)phenyl]quinazolin-4(3H)-one] |  |  | > 30 µM | 
7 | COc1ccc(-c2nc3ccccc3c(=O)[nH]2)cc1O [Compound 8, 2-[3-Hydroxy-4-(methyloxy)phenyl]quinazolin-4(3H)-one] | 2.8 ± 0.042 µM | 84.0% | > 30 µM | 
8 | COc1ccc(-c2nc3ccccc3c(=O)[nH]2)cc1 [Compound 10, 2-[4-(Methyloxy)phenyl]quinazolin-4(3H)-one] | 1.1 ± 0.05 µM | 99.7% | > 30 µM | 
9 | COc1ccc(-c2nc3ccccc3c(=O)[nH]2)cc1OC [Compound 11, 2-[3,4-Bis(methyloxy)phenyl]quinazolin-4(3H)-one] |  |  | > 30 µM | 
10 | COc1cc(-c2nc3ccccc3c(=O)[nH]2)cc(OC)c1OC [Compound 12, 2-[3,4,5-Tris(methyloxy)phenyl]quinazolin-4(3H)-one] |  | 97.6% | > 30 µM | 120 ± 2.54 µM
11 | CCOc1ccc(-c2nc3ccccc3c(=O)[nH]2)cc1 [Compound 13, 2-[4-(Ethyloxy)phenyl]quinazolin-4(3H)-one] |  |  | > 30 µM | 
12 | CCOc1ccccc1-c1nc2ccccc2c(=O)[nH]1 [Compound 14, 2-[2-(Ethyloxy)phenyl]quinazolin-4(3H)-one] |  |  | > 30 µM | 
13 | CCOc1cc(-c2nc3ccccc3c(=O)[nH]2)ccc1O [Compound 15, 2-[3-(Ethyloxy)-4-hydroxyphenyl]quinazolin-4(3H)-one] |  |  | > 30 µM | 
14 | O=c1[nH]c(-c2ccccc2Cl)nc2ccccc12 [Compound 16, 2-(2-Chlorophenyl)quinazolin-4(3H)-one] |  |  | > 30 µM | 
15 | O=c1[nH]c(-c2ccc(Cl)cc2Cl)nc2ccccc12 [Compound 17, 2-(2,4-Dichlorophenyl)quinazolin-4(3H)-one] |  |  | > 30 µM | 
16 | O=c1[nH]c(-c2c(Cl)cccc2Cl)nc2ccccc12 [Compound 18, 2-(2,6-Dichlorophenyl)quinazolin-4(3H)-one] |  |  | > 30 µM | 
17 | O=c1[nH]c(-c2ccc(Cl)cc2)nc2ccccc12 [Compound 19, 2-(4-Chlorophenyl)quinazolin-4(3H)-one] |  |  | > 30 µM | 
18 | O=c1[nH]c(-c2ccccc2[N+](=O)[O-])nc2ccccc12 [Compound 20, 2-(2-Nitrophenyl)quinazolin-4(3H)-one] |  |  | > 30 µM | 
19 | O=c1[nH]c(-c2cccc([N+](=O)[O-])c2)nc2ccccc12 [Compound 21, 2-(3-Nitrophenyl)quinazolin-4(3H)-one] | 50.4 ± 1.4 µM | 95.1% | > 30 µM | 
20 | O=c1[nH]c(-c2ccc([N+](=O)[O-])cc2)nc2ccccc12 [Compound 22, 2-(4-Nitrophenyl)quinazolin-4(3H)-one] | 20.1 ± 0.92 µM | 96.4% | > 30 µM | 
21 | CN(C)c1ccc(-c2nc3ccccc3c(=O)[nH]2)cc1 [Compound 23, 2-[4-(Dimethylamino)phenyl]quinazolin-4(3H)-one] | 5.5 ± 0.1 µM | 99.6% | > 30 µM | 
22 | Cc1ccc(-c2nc3ccccc3c(=O)[nH]2)cc1 [Compound 24, 2-(4-Methylphenyl)quinazolin-4(3H)-one] |  | 96.3% | > 30 µM | 
23 | O=c1[nH]c(-c2c(O)cccc2Br)nc2ccccc12 [Compound 25, 2-(2-Bromo-6-hydroxyphenyl)quinazolin-4(3H)-one] |  |  | > 30 µM | 
